Assay [1] deals with T1, human cloned dopamine D4.2-receptors (Homo sapiens, UniProt P21917, DEL265-296).
T1 construct: expressed in transfected cells; host or cells: CHO cells
T1 sequence (P21917 with tags, fused parts or gaps DEL265-296): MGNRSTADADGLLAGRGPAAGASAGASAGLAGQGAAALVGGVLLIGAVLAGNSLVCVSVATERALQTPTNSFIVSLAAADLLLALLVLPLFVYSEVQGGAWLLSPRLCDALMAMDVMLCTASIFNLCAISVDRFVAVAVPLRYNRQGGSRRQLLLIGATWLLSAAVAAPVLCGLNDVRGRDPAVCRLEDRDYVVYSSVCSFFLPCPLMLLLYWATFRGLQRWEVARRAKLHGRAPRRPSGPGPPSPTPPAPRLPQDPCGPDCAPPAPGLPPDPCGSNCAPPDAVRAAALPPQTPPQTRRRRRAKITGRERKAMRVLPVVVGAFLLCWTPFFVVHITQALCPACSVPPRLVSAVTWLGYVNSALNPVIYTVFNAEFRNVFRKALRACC
The experiment in a line: Inhibition of the binding of 3H-YM-09151-2 to human dopamine D4 receptors. The conditions noted are these: [3H]YM-09151-2 0.06 nM; for inhibition at 0.1 µM: at 100 nM, CHO-cell membranes, human D4.2; for IC50: membranes of CHO-cells expressing human D4.2. As for the experimental part:
Inhibition of the Binding of ^3H-YM-09151-2 to Human Dopamine D4 Receptors
By this method, the inhibition by drugs of the binding of [^3H]YM-09151-2 (0.06 nM) to membranes of human cloned dopamine D4.2-receptors expressed in CHO-cells is determined in vitro. Method modified from NEN Life Science Products, Inc., technical data certificate PC2533-10/96.

Assay [2] deals with T2, cloned human 5-HT1A-receptors (Homo sapiens, UniProt P08908).
T2 construct: expressed in transfected cells; host or cells: HeLa cells (HA7)
T2 sequence (P08908 1-422): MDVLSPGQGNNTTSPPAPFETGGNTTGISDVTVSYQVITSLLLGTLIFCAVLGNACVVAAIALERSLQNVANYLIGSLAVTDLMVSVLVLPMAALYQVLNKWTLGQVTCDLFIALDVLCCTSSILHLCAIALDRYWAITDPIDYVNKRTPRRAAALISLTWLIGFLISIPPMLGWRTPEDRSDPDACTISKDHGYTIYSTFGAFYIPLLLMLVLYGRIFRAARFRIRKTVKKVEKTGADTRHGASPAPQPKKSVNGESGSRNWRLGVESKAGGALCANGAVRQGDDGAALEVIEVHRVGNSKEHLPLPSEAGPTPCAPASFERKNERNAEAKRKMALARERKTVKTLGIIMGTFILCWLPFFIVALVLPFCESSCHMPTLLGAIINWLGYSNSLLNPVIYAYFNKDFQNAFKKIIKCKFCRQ
The experiment in a line: Inhibition of 3H-5-CT binding to human 5-HT1A receptors. Particulars: transfected HeLa cells (HA7), 15 minutes at 37° C., pH 7.7; for inhibition at 0.05 µM: at 50 nM. Here is the method: The affinity of the compounds of the invention to 5-HT1A receptors was determined by measuring the inhibition of binding of a radioactive ligand at 5-HT1A-receptors as described in the following test:
Inhibition of ^3H-5-CT Binding to Human 5-HT1A Receptors.
By this method, the inhibition by drugs of the binding of the 5-HT1A-agonist ^3H-5-carboxamido tryptamine (^3H-5-CT) to cloned human 5-HT1A-receptors stably expressed in transfected HeLa cells (HA7) (Fargin, A. et al. J. Biol. Chem. 1989, 264, 14848) is determined in vitro. The assay was performed as a modification of the method described by Harrington, M. A. et al. J. Pharmacol. Exp. Ther. 1994, 268, 1098. Human 5-HT1A-receptors (40 μg of cell homogenate) were incubated for 15 minutes at 37° C. in 50 mM Tris buffer at pH 7.7 in the presence of ^3H-5-CT. Non-specific binding was determined by including 10 μM of metergoline. The reaction was terminated by rapid filtration through Unifilter GF/B filters on a Tomtec Cell Harvester. Filters were counted in a Packard Top Counter.

Inhibition and IC50 data for 28 compounds are collected here from US20030050307A1, “Novel indole derivatives” (H. Lundbeck A/S, priority 1999, published 2003).

What is called inhibition is the relative decrease from the control value, in per cent. `Clc1cccc(SCCN2CCN(c3cccc4[nH]ccc34)CC2)c1` [Compound 5am, 4-{4-[2-(3-Chloro-phenylsulfanyl)-ethyl]-piperazin-1-yl}-1H-indole]: the inhibition at 0.1 µM in assay [1] amounted to 83%. In addition, the inhibition at 0.05 µM in assay [2] came out at 93%.
A word on the IC50: it is the concentration that inhibits the measured activity by half. As for `CCC(=O)c1cc(F)c(OCCCN2CCN(c3cccc4[nH]ccc34)CC2)c(F)c1` [Compound 4n, 1-(3,5-Difluoro-4-{3-[4-(1H-indol-4-yl)-piperazin-1-yl]-propoxy}-phenyl)-propan-1-one], the IC50 in assay [1] came to 230 nM; in assay [2], 0.72 nM.
Regarding `COc1ccccc1OCCCCN1CCN(c2cccc3[nH]ccc23)CC1` [Compound 5ba, 4-{4-[4-(2-Methoxy-phenoxy)-butyl]-piperazin-1-yl}-1H-indole], in assay [1], the inhibition at 0.1 µM is 80%. Also, the inhibition at 0.05 µM in assay [2] was 83%.
`Clc1cccc(Cl)c1SCCCN1CCN(c2cccc3[nH]ccc23)CC1` [Compound 4q, 4-{4-[3-(2,6-Dichloro-phenylsulfanyl)-propyl]-piperazin-1-yl}-1H-indole]: the 50% inhibitory concentration (IC50) in assay [1] was 7.2 nM; in assay [2], 3.5 nM.
As for `COc1ccc(SCCCCN2CCN(c3cccc4[nH]ccc34)CC2)cc1OC` [Compound 5av, 4-{4-[4-(3,4-Dimethoxy-phenylsulfanyl)-butyl]-piperazin-1-yl}-1H-indole], in assay [1], the inhibition at 0.1 µM turned out to be 107%. Also, the inhibition at 0.05 µM in assay [2] came to 69%.
The matching figures for `FC(F)(F)Oc1ccc(SCCCN2CCN(c3cccc4[nH]ccc34)CC2)cc1` [Compound 5ax, 4-{4-[3-(4-Trifluoromethoxy-phenylsulfanyl)-propyl]-piperazin-1-yl}-1H-indole]: 98% and 81%.
Regarding `Fc1ccc(OCCCN2CCN(c3cccc4[nH]ccc34)CC2)c(F)c1` [Compound 4c], the IC50 was 1.6 nM in assay [1] and 5.4 nM in assay [2].
On to `Clc1ccc(Cl)c(SCCN2CCN(c3cccc4[nH]ccc34)CC2)c1` [Compound 5al, 4-{4-[2-(2,5-Dichloro-phenylsulfanyl)-ethyl]-piperazin-1-yl}-1H-indole], for which the inhibition at 0.1 µM in assay [1] was found to be 96%. For the same compound, the inhibition at 0.05 µM in assay [2] is 92%.
Take `Fc1cc(F)c(OCCN2CCN(c3cccc4[nH]ccc34)CC2)c(Br)c1` [Compound 4p, 4-{4-[2-(2-Bromo-4,6-difluoro-phenoxy)-ethyl]-piperazin-1-yl}-1H-indole]: the half-maximal inhibitory concentration (IC50) in assay [1] was 13 nM; in assay [2] it was 36 nM.
With `Cc1cccc(C)c1OCCN1CCN(c2cccc3[nH]ccc23)CC1` [Compound 5aa, 4-{4-[2-(2,6-Dimethyl-phenoxy)-ethyl]-piperazin-1-yl}-1H-indole], the inhibition at 0.1 µM in assay [1] was 81%. The inhibition at 0.05 µM in assay [2] was 78%.
Turning to `Clc1cccc(Cl)c1SCCCCN1CCN(c2cccc3[nH]ccc23)CC1` [Compound 4d, 4-{4-[4-(2,6-Dichloro-phenylsulfanyl)-butyl]-piperazin-1-yl}-1H-indole], the IC50 in assay [1] was 1.8 nM; in assay [2] it was 7.1 nM.
On the same counts, the results for `Cc1cccc(Cl)c1SCCCCN1CCN(c2cccc3[nH]ccc23)CC1` [Compound 4f] are 3 nM and 5.8 nM.
In the case of `Fc1ccc(SCCCN2CCN(c3cccc4[nH]ccc34)CC2)c(Cl)c1` [Compound 4a], the IC50 in assay [1] was found to be 0.52 nM; in assay [2] it was 9.3 nM.
The matching figures for `Clc1ccccc1SCCCN1CCN(c2cccc3[nH]ccc23)CC1` [Compound 2a, 4-{4-[3-(2-Chloro-phenylsulfanyl)-propyl]-piperazin-1-yl}-1H-indole]: 1.1 nM and 2.4 nM.
The matching figures for `Fc1ccc(OCCCCN2CCN(c3cccc4[nH]ccc34)CC2)c(Br)c1` [Compound 2d, 4-{4-[4-(2-Bromo-4-fluoro-phenoxy)-butyl]-piperazin-1-yl}-1H-indole]: 1.6 nM and 6.4 nM.
In the case of `CCc1ccccc1OCCCCN1CCN(c2cccc3[nH]ccc23)CC1` [Compound 5ai, 4-{4-[4-(2-Ethyl-phenoxy)-butyl]-piperazin-1-yl}-1H-indole], the inhibition at 0.1 µM in assay [1] amounted to 90%. The inhibition at 0.05 µM in assay [2] turned out to be 93%.
Compound `FC(F)(F)c1ccccc1SCCCN1CCN(c2cccc3[nH]ccc23)CC1` [Compound 5af, 4-{4-[3-(2-Trifluoromethyl-phenylsulfanyl)-propyl]-piperazin-1-yl}-1H-indole] showed a half-inhibitory concentration (IC50) in assay [1] of 7.2 nM. In assay [2], the inhibition at 0.05 µM is 93%.
Regarding `CC(C)c1ccccc1SCCCCN1CCN(c2cccc3[nH]ccc23)CC1` [Compound 5bb, 4-{4-[4-(2-Isopropyl-phenylsulfanyl)-butyl]-piperazin-1-yl}-1H-indole], in assay [1], the inhibition at 0.1 µM is 94%. Further, in assay [2], the inhibition at 0.05 µM worked out at 94%.
Consider `Fc1ccc(OCCCN2CCN(c3cccc4[nH]ccc34)CC2)c(Cl)c1` [Compound 4e, 4-{4-[3-(2-Chloro-4-fluoro-phenoxy)-propyl]-piperazin-1-yl}-1H-indole], for which the IC50 in assay [1] is 2 nM; in assay [2], 4.9 nM.
Turning to `N#Cc1cccc(OCCCCN2CCN(c3cccc4[nH]ccc34)CC2)c1` [Compound 5at, 3-{4-[4-(1H-Indol-4-yl)-piperazin-1-yl]-butoxy}-benzonitrile], in assay [1], the inhibition at 0.1 µM was 95%. The inhibition at 0.05 µM in assay [2] is 92%.
On the same counts, the results for `Brc1cccc(SCCCN2CCN(c3cccc4[nH]ccc34)CC2)c1` [Compound 5ay, 4-{4-[3-(3-Bromo-phenylsulfanyl)-propyl]-piperazin-1-yl}-1H-indole] are 105% and 96%.
On to `Cc1cccc(Cl)c1SCCCCN1CCN(c2cccc3[nH]ccc23)CC1` [Compound 2e, 4-{4-[4-(2-Chloro-6-methyl-phenylsulfanyl)-butyl]-piperazin-1-yl}-1H-indole], for which the IC50 in assay [1] amounted to 2.2 nM; in assay [2], 4.5 nM.
On to `FC(F)(F)c1ccc(SCCCN2CCN(c3cccc4[nH]ccc34)CC2)cc1` [Compound 5aw, 4-{4-[3-(4-Trifluoromethyl-phenylsulfanyl)-propyl]-piperazin-1-yl}-1H-indole], for which, in assay [1], the inhibition at 0.1 µM is 99%. Besides, in assay [2], the inhibition at 0.05 µM worked out at 98%.
Turning to `Brc1cc(Br)c(OCCCN2CCN(c3cccc4[nH]ccc34)CC2)c(Br)c1` [Compound 4l, 14-{4-[3-(2,4,6-Tribromo-phenoxy)-propyl]-piperazin-1-yl}-1H-indole], the IC50 is 28 nM in assay [1] and 1.1 nM in assay [2].
On the same counts, the results for `Fc1ccc(SCCN2CCN(c3cccc4[nH]ccc34)CC2)c(Cl)c1` [Compound 3a, 4-{4-[2-(2-Chloro-4-fluoro-phenylsulanyl)-ethyl]-piperazin-1-yl}-1H-indole] are 6.6 nM and 15 nM.
Take `Clc1ccc(SCCCN2CCN(c3cccc4[nH]ccc34)CC2)cc1Cl` [Compound 5ag, 4-{4-[3-(3,4-Dichloro-phenylsulfanyl)-propyl]-piperazin-1-yl}-1H-indole]: in assay [1], the inhibition at 0.1 µM was 95%. The inhibition at 0.05 µM in assay [2] worked out at 93%.
Take `Fc1ccc(OCCCCN2CCN(c3cccc4[nH]ccc34)CC2)c(Br)c1` [Compound 4b, 4-{4-[4-(2-Bromo-4-fluoro-phenoxy)-butyl]-piperazin-1-yl}-1H-indole]: the IC50 in assay [1] is 0.66 nM; in assay [2], 2.4 nM.
Consider `Clc1cccc(SCCCCN2CCN(c3cccc4[nH]ccc34)CC2)c1` [Compound 5aq, 4-{4-[4-(3-Chloro-phenylsulfanyl)-butyl]-piperazin-1-yl}-1H-indole], for which, in assay [1], the inhibition at 0.1 µM was 98%. Moreover, the inhibition at 0.05 µM in assay [2] stood at 100%.
